Experiment [1] has as its target T1, N-type Ca^2+ channel (Cav2.2) (Rattus norvegicus, UniProt Q02294).
T1 construct: expressed in transfected cells; later also transient transfection
Description: N-type Ca2+ channel agonist activity, whole-cell perforated patch clamp of tail currents in tsA201 cells. The format is cell-based. How it is done:
tsA201 cells expressing calcium channels. […] For subsequent evaluation of effects on N-, P/Q-, or L-type channels, tsA-201 cells were transiently transfected with Cav2.2, Cav2.1, or Cav1.3, in combination with Cavβ3 and […] (Addgene, Cambridge Mass.) using FuGENE 6 (Life Technologies, Grand Island, N.Y.). All cells were maintained in DMEM supplemented with 10% fetal bovine serum. For the stable cell line expressing N-type channels, 25 μg/mL zeocin, 5 μg/mL blasticidin, and 25 μg/mL hygromycin were added as selection agents.
Whole-cell patch clamp recordings of calcium current. […] Briefly, the pipette solution consisted of […] Cs2SO4, 60 mM CsCl, 1 mM MgCl2, 10 mM 4-(2-hydroxyethyl)-1-piperazineethanesulfonic acid (HEPES) at pH 7.4. […] Patch pipettes were fabricated from borosilicate glass and pulled to a resistance of about 1 MΩ. Before each experiment, a stock solution consisting of 3 mg amphotericin-B dissolved into 50 μL anhydrous DMSO was made. […] Capacitive currents and passive membrane responses to voltage commands were subtracted from the data. Currents were amplified by an Axopatch 200B amplifier, filtered at 5 KHz, and digitized at 10 KHz for subsequent analysis using pClamp software (Axon Instruments/Molecular Devices; Sunnyvale, Calif.). […] To measure effects on calcium channel tail currents, the tail current integral was measured before and after application of a derivative, with the integral of each trace being normalized to its peak. All experiments were carried out at room temperature (22° C.). […] All other salts and chemicals were obtained from Sigma-Aldrich chemical company (St. Louis, Mo.).
(§1) Statistical Analysis. Statistical analysis was performed using either GraphPad Prism 5 (GraphPad Software, Inc.) or Origin 7 (OriginLab) software. For the dose-response analyses on Ca^2+ current, each concentration of the four different compounds was tested in 3-6 cells. […] All EC50 and IC50 values and their respective errors were determined by performing 100 iterations of a logistic function curve fit. Data are presented as mean±s.e.m. unless otherwise noted.
A general note: The patch-clamp technique gives a direct electrical read-out from membranes.

Experiment [2] deals with T2, L-type (Cav 1.3) channels (Rattus norvegicus, UniProt P27732).
T2 construct: host or cells: tsA-201
The experiment is described as follows: L-type Ca2+ channel agonist activity, whole-cell perforated patch clamp in tsA-201 cells. It counts as cell-based.
Description: For subsequent evaluation of effects on N-, P/Q-, or L-type channels, tsA-201 cells were transiently transfected with Cav2.2, Cav2.1, or Cav1.3, in combination with Cavβ3 and Cavα2β1 (Addgene, Cambridge Mass.) using FuGENE 6 (Life Technologies, Grand Island, N.Y.). All cells were maintained in DMEM supplemented with 10% fetal bovine serum.
Whole-cell patch clamp recordings of calcium current. […] Briefly, the pipette solution consisted of 70 nM Cs2SO4, 60 mM CsCl, 1 mM MgCl2, 10 mM 4-(2-hydroxyethyl)-1-piperazineethanesulfonic acid (HEPES) at pH 7.4. […] Patch pipettes were fabricated from borosilicate glass and pulled to a resistance of about 1 MΩ. Before each experiment, a stock solution consisting of 3 mg amphotericin-B dissolved into 50 μL anhydrous DMSO was made. […] Capacitive currents and passive membrane responses to voltage commands were subtracted from the data. Currents were amplified by an Axopatch 200B amplifier, filtered at 5 KHz, and digitized at 10 KHz for subsequent analysis using pClamp software (Axon Instruments/Molecular Devices; Sunnyvale, Calif.). […] To measure effects on calcium channel tail currents, the tail current integral was measured before and after application of a derivative, with the integral of each trace being normalized to its peak. All experiments were carried out at room temperature (22° C.). […]

The target in experiment [3] is T3, cdk2 cyclinA(h) (Homo sapiens, UniProt P24941).
T3 construct: purchased EMD Millipore KinaseProfiler service (Millipore UK Ltd.)
The experiment is described as follows: Kinase inhibitory activity (EMD Millipore KinaseProfiler), cdk2. It counts as biochemical. How it is done: (§2) Kinase inhibitory activity. Kinase inhibitory activities were determined using the EMD Millipore KinaseProfiler™ service (Millipore UK Ltd.). Each compound's kinase inhibitory activity was tested at three different concentrations (0.2 μM, 2 μM, and 20 μM) against five different kinases: Cdk1 cyclinB(h), cdk2 cyclinA(h), cdk5 p35(h), mitogen-activated protein kinase (MAPK1(h)) and myosin light-chain kinase (MLCK(h)).
(§3) Statistical Analysis. […] For the dose-response analyses on Ca^2+ current, each concentration of the four different compounds was tested in 3-6 cells. […] All EC50 and IC50 values and their respective errors were determined by performing 100 iterations of a logistic function curve fit.

Experiment [4] deals with T4, Cdk1 cyclinB(h) (Homo sapiens, UniProt P06493).
T4 construct: purchased EMD Millipore KinaseProfiler service (Millipore UK Ltd.)
Description: Kinase inhibitory activity (EMD Millipore KinaseProfiler), cdk1. It counts as biochemical. The note with it: 20 μM highest concentration used; read-out: Cdk1 EC50/IC50 affinities. As to the method:
as §2, §1

Experiment [5] has as its target T5, cdk5 p35(h) (Homo sapiens, UniProt Q00535).
T5 construct: purchased EMD Millipore KinaseProfiler service (Millipore UK Ltd.)
Description: Kinase inhibitory activity (EMD Millipore KinaseProfiler), cdk5. It counts as biochemical. The note with it: 20 μM highest concentration used; read-out: Cdk5 EC50/IC50 affinities. How it is done: as §2, §1

The target of experiment [6] is T6, mitogen-activated protein kinase (MAPK1(h)) (Homo sapiens, UniProt P27361).
T6 construct: purchased EMD Millipore KinaseProfiler service (Millipore UK Ltd.)
Description: Kinase inhibitory activity (EMD Millipore KinaseProfiler), MAPK1. The format is biochemical. Conditions: 20 μM highest concentration used; read-out: MAPK EC50/IC50 affinities. As to the method:
as §2, §3

Experiment [7] addresses T7, myosin light-chain kinase (MLCK(h)) (Homo sapiens, UniProt Q9H1R3).
T7 construct: purchased EMD Millipore KinaseProfiler service (Millipore UK Ltd.)
The experiment is described as follows: Kinase inhibitory activity (EMD Millipore KinaseProfiler), MLCK. Conditions: 20 μM highest concentration used; read-out: MLCK EC50/IC50 affinities. The format is biochemical. As to the method:
as §2, §3

Experiment [8] has as its system LEMS model NMJs. Description: Intracellular recordings at LEMS model mouse NMJs, 13x, DAP and combination (Example 4). The note with it: 50 μM 13x, […] DAP, or both. As to the method: To test this, intracellular microelectrode recordings were performed on ex vivo nerve-muscle preparations taken from LEMS passive-transfer model mice and measured the magnitude of acetylcholine released at the neuromuscular junction. The most sensitive method of quantifying the magnitude of acetylcholine released is to determine the quantal content. Quantal content is defined as the number of neurotransmitter-containing synaptic vesicles that are released from the nerve terminal during a single action potential stimulus. This value was determined by first measuring the area under the average action potential-evoked endplate potential (EPP) and then dividing this value by the area under the average single vesicle release event (miniature endplate potential; mEPP). This value could be compared between experimental groups to provide an accurate measurement of changes in the magnitude of acetylcholine released during a single action potential. Using this approach, the quantal content among five experimental conditions was compared: control NMJs, LEMS NMJs, LEMS NMJs exposed to 50 μM 13x, LEMS NMJs exposed to 1.5 μM DAP, and LEMS NMJs exposed to 50 μM 13x+1.5 μM DAP (FIG. 10). […]; EPP amplitude=10.18±0.62 mV) as compared with control serum treated mouse NMJs (QC=107.5±3.6; EPP amplitude=34.62±1.37 mV; Tarr et al., 2013). […] In fact, this 13x-mediated enhancement was very similar to what was observed after exposure of LEMS model NMJs to 1.5 μM DAP (QC=49.0±4.4; EPP amplitude=17.94±1.381 mV). […]; EPP amplitude=34.62±1.37 mV; Tarr et al., 2013). […] In summary, while either 13x or DAP alone caused about an 80% increase in transmitter release from LEMS model NMJs, the combination of 13x plus DAP caused about a 300% increase in transmitter release.

Structures are written as SMILES. “And” between values parts separate entries of the source, which are not always exact repeats. Equal entries are not always repeated. Where two headings read alike, the source gives them in different places.

T1 sequence (Q02294 whole entry): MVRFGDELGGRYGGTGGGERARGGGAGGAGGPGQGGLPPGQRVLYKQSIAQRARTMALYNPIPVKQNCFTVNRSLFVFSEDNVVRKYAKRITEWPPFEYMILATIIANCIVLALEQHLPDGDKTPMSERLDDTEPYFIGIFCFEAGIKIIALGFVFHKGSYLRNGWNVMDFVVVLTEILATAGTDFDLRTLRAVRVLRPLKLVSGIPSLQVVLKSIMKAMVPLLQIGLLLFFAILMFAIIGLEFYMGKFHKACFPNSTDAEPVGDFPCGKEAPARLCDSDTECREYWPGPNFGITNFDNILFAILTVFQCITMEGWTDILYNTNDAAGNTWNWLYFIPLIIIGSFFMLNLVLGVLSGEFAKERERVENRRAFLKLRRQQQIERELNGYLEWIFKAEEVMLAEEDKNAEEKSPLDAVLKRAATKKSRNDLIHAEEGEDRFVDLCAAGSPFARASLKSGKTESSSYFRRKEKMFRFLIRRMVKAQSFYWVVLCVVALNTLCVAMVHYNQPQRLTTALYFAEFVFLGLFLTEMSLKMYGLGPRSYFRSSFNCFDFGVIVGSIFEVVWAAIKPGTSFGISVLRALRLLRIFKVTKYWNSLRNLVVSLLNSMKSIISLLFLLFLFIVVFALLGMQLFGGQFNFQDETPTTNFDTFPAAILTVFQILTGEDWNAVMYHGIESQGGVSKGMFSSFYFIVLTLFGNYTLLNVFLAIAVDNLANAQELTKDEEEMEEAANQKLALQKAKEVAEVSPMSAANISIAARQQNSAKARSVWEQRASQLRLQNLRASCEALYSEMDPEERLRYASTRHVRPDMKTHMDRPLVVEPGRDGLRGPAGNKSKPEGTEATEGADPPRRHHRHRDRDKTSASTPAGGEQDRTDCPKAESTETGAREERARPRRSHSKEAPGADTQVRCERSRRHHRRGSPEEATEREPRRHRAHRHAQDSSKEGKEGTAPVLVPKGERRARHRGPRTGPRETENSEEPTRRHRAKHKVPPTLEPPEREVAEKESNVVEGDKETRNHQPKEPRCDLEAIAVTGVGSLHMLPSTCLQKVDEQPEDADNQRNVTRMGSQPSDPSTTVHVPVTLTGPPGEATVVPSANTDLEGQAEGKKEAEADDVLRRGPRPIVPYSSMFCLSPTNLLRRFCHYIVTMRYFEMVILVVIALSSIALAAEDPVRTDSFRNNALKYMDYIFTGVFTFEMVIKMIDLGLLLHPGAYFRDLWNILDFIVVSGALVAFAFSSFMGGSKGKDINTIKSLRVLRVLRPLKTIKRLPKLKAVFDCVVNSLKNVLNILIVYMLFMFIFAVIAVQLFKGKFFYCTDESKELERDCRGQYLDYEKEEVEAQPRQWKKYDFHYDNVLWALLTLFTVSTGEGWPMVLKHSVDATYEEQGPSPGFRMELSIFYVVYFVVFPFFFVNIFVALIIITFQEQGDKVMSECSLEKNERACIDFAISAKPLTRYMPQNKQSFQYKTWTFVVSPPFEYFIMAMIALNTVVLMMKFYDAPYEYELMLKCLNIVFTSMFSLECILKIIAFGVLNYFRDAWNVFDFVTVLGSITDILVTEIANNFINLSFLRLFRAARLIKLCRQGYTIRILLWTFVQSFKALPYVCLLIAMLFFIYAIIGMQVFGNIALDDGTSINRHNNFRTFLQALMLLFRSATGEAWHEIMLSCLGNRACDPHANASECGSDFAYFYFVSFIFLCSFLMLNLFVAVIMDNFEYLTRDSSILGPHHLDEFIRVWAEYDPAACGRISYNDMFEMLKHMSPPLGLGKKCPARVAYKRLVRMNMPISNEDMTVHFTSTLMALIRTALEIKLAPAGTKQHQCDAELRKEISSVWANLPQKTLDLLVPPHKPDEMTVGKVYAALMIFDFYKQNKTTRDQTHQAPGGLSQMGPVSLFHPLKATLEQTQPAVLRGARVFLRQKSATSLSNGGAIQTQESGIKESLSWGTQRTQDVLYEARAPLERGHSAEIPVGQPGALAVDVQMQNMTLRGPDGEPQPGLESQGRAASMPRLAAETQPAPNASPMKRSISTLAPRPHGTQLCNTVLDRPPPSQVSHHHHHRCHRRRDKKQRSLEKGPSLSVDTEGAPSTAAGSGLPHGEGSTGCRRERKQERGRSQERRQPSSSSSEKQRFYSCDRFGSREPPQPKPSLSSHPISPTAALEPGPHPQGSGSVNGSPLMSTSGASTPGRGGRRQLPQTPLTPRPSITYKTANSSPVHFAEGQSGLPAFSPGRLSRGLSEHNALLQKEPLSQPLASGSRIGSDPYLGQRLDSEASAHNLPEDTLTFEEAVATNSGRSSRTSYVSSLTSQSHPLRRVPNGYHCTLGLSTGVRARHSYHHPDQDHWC
T2 sequence (P27732 whole entry): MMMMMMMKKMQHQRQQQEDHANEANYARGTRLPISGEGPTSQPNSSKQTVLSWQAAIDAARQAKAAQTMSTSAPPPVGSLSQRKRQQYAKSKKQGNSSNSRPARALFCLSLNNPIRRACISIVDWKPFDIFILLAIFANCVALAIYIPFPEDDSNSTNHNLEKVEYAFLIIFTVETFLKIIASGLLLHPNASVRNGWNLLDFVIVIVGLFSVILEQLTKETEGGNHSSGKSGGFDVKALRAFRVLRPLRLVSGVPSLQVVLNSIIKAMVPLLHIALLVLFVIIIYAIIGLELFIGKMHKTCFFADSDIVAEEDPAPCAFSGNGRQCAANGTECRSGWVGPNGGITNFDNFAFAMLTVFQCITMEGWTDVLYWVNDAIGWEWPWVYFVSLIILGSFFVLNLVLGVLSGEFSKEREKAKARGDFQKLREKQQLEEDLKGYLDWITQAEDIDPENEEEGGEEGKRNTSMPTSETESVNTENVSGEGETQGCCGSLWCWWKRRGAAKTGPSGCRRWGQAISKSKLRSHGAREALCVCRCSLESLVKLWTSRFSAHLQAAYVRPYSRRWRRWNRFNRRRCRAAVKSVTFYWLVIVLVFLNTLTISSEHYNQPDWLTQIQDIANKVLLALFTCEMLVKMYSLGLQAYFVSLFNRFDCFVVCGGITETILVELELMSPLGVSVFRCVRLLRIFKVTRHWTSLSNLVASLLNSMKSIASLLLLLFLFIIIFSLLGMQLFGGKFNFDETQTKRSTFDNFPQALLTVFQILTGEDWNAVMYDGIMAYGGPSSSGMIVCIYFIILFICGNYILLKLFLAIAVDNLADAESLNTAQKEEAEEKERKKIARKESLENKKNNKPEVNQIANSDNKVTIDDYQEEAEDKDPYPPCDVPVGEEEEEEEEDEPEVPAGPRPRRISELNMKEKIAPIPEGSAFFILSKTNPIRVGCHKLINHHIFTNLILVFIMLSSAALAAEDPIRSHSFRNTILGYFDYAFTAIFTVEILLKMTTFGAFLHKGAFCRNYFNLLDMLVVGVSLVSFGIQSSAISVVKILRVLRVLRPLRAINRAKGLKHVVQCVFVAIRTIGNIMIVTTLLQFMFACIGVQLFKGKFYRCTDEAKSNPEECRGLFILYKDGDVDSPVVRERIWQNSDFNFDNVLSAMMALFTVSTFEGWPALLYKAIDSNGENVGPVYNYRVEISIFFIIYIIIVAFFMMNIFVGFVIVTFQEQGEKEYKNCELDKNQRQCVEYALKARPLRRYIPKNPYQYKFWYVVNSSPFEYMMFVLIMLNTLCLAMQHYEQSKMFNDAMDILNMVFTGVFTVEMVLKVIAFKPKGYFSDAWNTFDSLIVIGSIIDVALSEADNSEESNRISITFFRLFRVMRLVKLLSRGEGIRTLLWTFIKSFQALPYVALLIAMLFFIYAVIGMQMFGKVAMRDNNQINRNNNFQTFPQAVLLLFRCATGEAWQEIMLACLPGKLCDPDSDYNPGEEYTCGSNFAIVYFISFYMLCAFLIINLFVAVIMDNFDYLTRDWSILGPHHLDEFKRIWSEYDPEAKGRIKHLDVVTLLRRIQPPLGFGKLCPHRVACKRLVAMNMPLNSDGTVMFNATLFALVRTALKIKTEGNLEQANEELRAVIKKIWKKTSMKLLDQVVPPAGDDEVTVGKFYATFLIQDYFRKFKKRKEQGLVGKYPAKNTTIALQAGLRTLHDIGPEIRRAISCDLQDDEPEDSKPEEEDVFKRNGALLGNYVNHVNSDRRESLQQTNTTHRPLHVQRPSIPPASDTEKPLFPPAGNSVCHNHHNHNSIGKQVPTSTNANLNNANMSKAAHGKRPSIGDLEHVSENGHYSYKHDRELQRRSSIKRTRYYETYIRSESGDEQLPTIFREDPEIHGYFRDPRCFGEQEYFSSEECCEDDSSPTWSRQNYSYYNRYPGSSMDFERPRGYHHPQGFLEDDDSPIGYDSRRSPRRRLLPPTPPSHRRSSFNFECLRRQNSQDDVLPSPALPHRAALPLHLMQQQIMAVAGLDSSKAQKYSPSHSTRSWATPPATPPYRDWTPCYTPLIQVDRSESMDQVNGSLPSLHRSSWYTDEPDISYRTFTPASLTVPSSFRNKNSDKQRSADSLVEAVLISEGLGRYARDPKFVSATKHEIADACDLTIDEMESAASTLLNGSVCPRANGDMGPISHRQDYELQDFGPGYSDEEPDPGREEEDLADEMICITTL
T5 sequence (Q00535 whole entry): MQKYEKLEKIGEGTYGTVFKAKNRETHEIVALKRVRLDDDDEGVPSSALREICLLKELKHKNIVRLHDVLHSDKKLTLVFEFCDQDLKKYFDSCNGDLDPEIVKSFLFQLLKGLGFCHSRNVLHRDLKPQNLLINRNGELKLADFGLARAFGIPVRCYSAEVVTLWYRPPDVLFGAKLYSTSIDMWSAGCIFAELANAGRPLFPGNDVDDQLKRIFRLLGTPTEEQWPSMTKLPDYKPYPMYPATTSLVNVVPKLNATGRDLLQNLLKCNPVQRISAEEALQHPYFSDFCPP
T5 sequence (Q15078 whole entry partner): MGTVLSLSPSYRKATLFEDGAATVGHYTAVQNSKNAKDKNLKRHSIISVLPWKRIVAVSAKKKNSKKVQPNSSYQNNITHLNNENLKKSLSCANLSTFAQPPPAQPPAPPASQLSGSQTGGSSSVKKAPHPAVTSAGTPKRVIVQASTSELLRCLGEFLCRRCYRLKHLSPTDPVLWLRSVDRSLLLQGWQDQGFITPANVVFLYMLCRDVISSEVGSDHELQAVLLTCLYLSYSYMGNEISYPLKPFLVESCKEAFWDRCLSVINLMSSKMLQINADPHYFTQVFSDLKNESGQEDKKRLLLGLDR

Regarding `CCCn1cnc2c(NCc3ccc(C)s3)nc(N[C@H](CC)CO)nc21` [Compound 13x, (2R)-2-[(6-{[(5-Methylthiophen-2-yl)methyl]amino}-9-propyl-9H-purin-2-yl)amino]butan-1-ol], the “higher affinity for the calcium channel than (R)-roscovitine” value in experiment [1] (FIG. 4C dose response curve) amounted to 6 fold. Further, the “increase in efficacy as an agonist for N- and P/Q-type Ca^2+ channels vs (R)-roscovitine” value in experiment [1] (N- and P/Q-type) was around 4 fold. In addition, the “increase in potency as an agonist for N- and P/Q-type Ca^2+ channels vs (R)-roscovitine” value in experiment [1] (N- and P/Q-type) is 3-4 fold. In experiment [1] (N-type), the “agonist effect on the Ca^2+ channel tail currents (in words)” value is listed as “strong agonist effect”. The “maximal fold increase in the tail current integral relative to control” value in experiment [1] (N-type channels) was around 32 fold. Besides, the EC50 in experiment [1] (Table 3, calcium channel agonist, read-out: N-type EC50/IC50 affinities) is 7.21 ± 0.86 µM; in experiment [1] (read-out: 95% confidence interval for the fit (EC50) to N-type channels) it was 4.6 to 9.8 µM; in experiment [1] (whole cell perforated patch clamp, deactivation (tail) currents from N-type channels, read-out: N-Type Ca^2+ Channel Activity EC50 +/− SEM), 7.2 µM and 7.21 µM; in experiment [2] (Cav 1.3, no measureable agonist effect up to 100 μM, read-out: L-type EC50/IC50 affinities), above 100 µM; in experiment [2] (b265, read-out: agonist effects on L-type calcium channels EC50), above 100 µM; in experiment [3] (determined in duplicate at 0.2, 2, and 20 μM, read-out: Cdk2 Activity EC50 +/− SEM), 3 µM. The IC50 in experiment [3] (20 μM highest concentration used, read-out: Cdk2 EC50/IC50 affinities) is 3.29 ± 0.43 µM; in experiment [4], 20.6 ± 0.96 µM; in experiment [5] it was 3.03 ± 0.32 µM; in experiment [6], above 20 µM; in experiment [7], above 20 µM. For the same compound, in experiment [8], the “10th EPP of 50 Hz train as % of the first EPP (short-term plasticity)” value is reported as around 123%. Further, in experiment [8], the “increase in transmitter release from LEMS model NMJs” value is around 80%. Moreover, the EPP amplitude in experiment [8] (LEMS model NMJs) is recorded as 13.75±1.244 mV. Also, in experiment [8] (LEMS model NMJs, mean±s.e.m.), the “quantal content (QC, area of EPP divided by area of mEPP)” value came out at 48.4±2.7.

The record behind these values is US9796714B2, “Calcium channel agonists” (University of Pittsburgh—Of the Commonwealth System of …, priority 2013, dated 2017).
